Holding throughout (assay type): physicochemical
The nature of series [1]: Water resistance of printed matter (OD residual ratio). Conditions: ink containing the dye; printed matter soaked in purified water at 25° C. for 10 minutes. The text has this:
(§1) There were mixed together 8 parts by weight of a coloring material-containing emulsion obtained in the above item (2) or a 30% aqueous solution of a dye obtained in any one of Reference Examples 1 to 5, 10 parts by weight of trimethylglycine, 5 parts by weight of urea, 1 part by weight of sodium 2-ethylhexylsulfosuccinate and 76 parts by weight of purified water, to give an ink.
(§2) An inkjet printer cartridge (commercially available from CANON INC. under the trade name of BCI-21e) was charged with an ink, and the inkjet printer cartridge was loaded on a bubble jet printer (commercially available from CANON INC. under the model number of BJC430J). Printing was carried out on plain paper (commercially available from CANON INC. under the trade name of The Plain Paper for Inkjet Printing PB Paper) and on high-resolution coated paper (commercially available from CANON INC. under the trade name of (The High Resolution Coated Paper HR-101), and sufficiently dried. Thereafter, the following physical properties of the printed paper were evaluated. The results are shown in Table 2.
(2) Water Resistance
The printed matter on a paper sheet for plain paper copy was soaked in purified water at 25° C. for 10 minutes, and thereafter water was sufficiently removed to be air-dried. The optical density (hereinafter referred to as OD) of the same site before and after soaking was determined by using an optical density analyzer [commercially available from Macbeth Process Measurements Co., umder the trade name of reflection densitometer RD-914]. Its OD residual ratio was obtained in accordance with the following equation: [formula]

Series [2] can be described thus: Light fastness of printed matter (OD residual ratio). Conditions: ink containing the dye; printed matter irradiated at 10000 kJ/m^2, xenon fade meter.
Text: as §1, §2
(3) Light Fastness
A printed matter of the PB Paper (commercially available from CANON INC.) was irradiated at 10000 kJ/m^2 with a xenon fade meter (commercially available from Suga Shikenki K.K. under the trade name of Low-temperature cycle-xenon-long life-fade meter). The optical density (OD) of the same site before and after irradiation was determined by using the same optical density analyzer as above. Its OD residual ratio was obtained in accordance with the following equation: [formula]

The nature of series [3]: Ozone resistance of printed matter. As to conditions: ink containing the dye; printed matter exposed to 3 ppm ozone for 2 hours.
Text: as §1, §2
(4) Ozone Resistance
A printed matter on a paper sheet for plain paper copy was exposed in a gas stream having an ozone concentration of 3 ppm for 2 hours, and the color tone (L*a*b*) before and after exposure was determined by using a colorinmeter [commercially available from Nippon Denshoku Kogyo Kabushiki Kaisha under the trade name of SE2000], and indicated by ΔE.

Series [4] in a line: Storage stability of ink (retention ratio of physical properties). Conditions: ink containing the dye, stored at 60° C. for 3 months; for Retention Ratio of Physical Properties After Storage (%) Surface Tension: surface tension at 25° C.; for Retention Ratio of Physical Properties After Storage (%) Viscosity: viscosity at 25° C. Here is the method: In 10 g of toluene was dissolved 0.6 g of each dye obtained in Preparation Examples 1 to 5 or Reference Example 6 or 7, and 1.4 g of the vinyl polymer solution obtained in the above item (1) was added to the resulting mixed solution, and the mixture was sufficiently stirred to dissolve the dye.
Next, 5.21 g of a 1 N aqueous potassium hydroxide and 50 g of purified water were added to the resulting solution, and the mixture was further sufficiently stirred. After stirring, the mixture was emulsified with an ultrasonic homogenizer at 400 μA for 20 minutes. Thereafter, toluene was removed with heating under reduced pressure, and the resulting mixture was filtered with a 0.8 μm filter, to give a coloring material-containing emulsion in which the dye was contained in the vinyl polymer.
as §1
A. Storage Stability of Ink
A 100 mL bottle made of a fluorocarbon resin was charged with an ink, and the bottle was stored in the air at 60° C. for 3 months. As the physical properties, particle sizes before and after storage (determined by a particle size distribution analyzer commercially available from OtsuKa Denshi K.K. under the trade name of ELS-8000), viscosity (determined at 25° C. by a viscometer commercially available from Toki Sangyo K.K. under the trade name of VISCOMETER ELS-80L) and surface tension (determined at 25° C. by a surface tension meter commercially available from Kyowa Kaimen Kagaku K.K. under the trade name of AUTOMATIC Surface Tensiometer CBVP-Z) were examined. The retention ratio in each physical property was obtained in accordance with the following equation: [formula]

The nature of series [5]: Water resistance, alkali resistance and acid resistance of dye on plain paper. The arrangement: key: ◯: Dye not being dissolved; x: Dye being dissolved. Here is the method:
A. Water Resistance, Alkali Resistance and Acid Resistance
In 10 ml of tetrahydrofuran was dissolved 0.1 g of a dye. A paper sheet for plain paper copy [commercially available from XEROX CO., LTD. under the trade name of XEROX 4024] was immersed in the solution for 10 minutes, and thereafter taken out therefrom to be air-dried at 25° C. for 24 hours. After drying, the paper was immersed in water (water resistance), a 1 N-aqueous sodium bydroxide (alkali resistance), or a 1 N-aqueous hydrochloric acid (acid resistance) for 10 minutes to examine whether or not the dye is dissolved in each solvent. The evaluation was made on the basis of the following evaluation criteria:
◯: Dye not being dissolved

Series [6] is described as follows: Solvent solubility of dye. The arrangement: key: ◯: Dye not being dissolved; x: Dye being dissolved. Conditions: 20° C. The procedure: Twenty parts by weight of a dye was added to 100 parts by weight of a solvent shown in Table 1, and whether or not the dye is dissolved in the solvent at 20° C. was observed. The evaluation was made on the basis of the following evaluation criteria:
x: Dye not being dissolved

On to `CCCCN(CCCC)C(=O)C1=NN(c2ccc(S(=O)(=O)N(CCCC)CCCC)cc2)C(=O)C1N=Nc1ccc(S(=O)(=O)N(CCCC)CCCC)cc1` (centres unmarked) [Oil-Soluble Dye IB], for which the “Water Resistance [OD Residual Ratio (%)]” value in series [1] is 100%. In series [2], the “Light Fastness [OD Residual Ratio (%)]” value is 98%. Also, in series [3], the “Ozone Resistance (ΔE)” value was found to be 0. Moreover, in series [4], the “Retention Ratio of Physical Properties After Storage (%) Particle Size” value (from here on “Retention Ratio … (%) Particle Size”) came to 98.4%, the “Retention Ratio of Physical Properties After Storage (%) Surface Tension” value (from here on “Retention Ratio … (%) Surface Tension”) is recorded as 97.3% and the “Retention Ratio of Physical Properties After Storage (%) Viscosity” value (“Retention Ratio … (%) Viscosity” below) was found to be 95%.

Turning to `CCCCCCN(CCCCCC)S(=O)(=O)c1ccc(N=NC2C(=O)N(c3cc(Cl)c(S(=O)(=O)N(CCCCCC)CCCCCC)cc3Cl)N=C2C)cc1` (centres unmarked) [Oil-Soluble Dye IC], the “Water Resistance [OD Residual Ratio (%)]” value in series [1] was found to be 100%. The “Light Fastness [OD Residual Ratio (%)]” value in series [2] is recorded as 100%. Further, the “Ozone Resistance (ΔE)” value in series [3] amounted to 0. In series [4], the “Retention Ratio … (%) Particle Size” value was determined as 99.4%, the “Retention Ratio … (%) Surface Tension” value worked out at 98.5% and the “Retention Ratio … (%) Viscosity” value was found to be 100%.

On to `CCCCN(CCCC)S(=O)(=O)c1cccc(N=Nc2ccc(NC(=O)Nc3ccc(N=Nc4cccc(S(=O)(=O)N(CCCC)CCCC)c4)cc3OC)c(OC)c2)c1` [Oil-Soluble Dye ID], for which the “Water Resistance [OD Residual Ratio (%)]” value in series [1] amounted to 100%. Further, the “Light Fastness [OD Residual Ratio (%)]” value in series [2] worked out at 94%. Besides, the “Ozone Resistance (ΔE)” value in series [3] is reported as 0. In series [4], the “Retention Ratio … (%) Particle Size” value is given as 101.3%, the “Retention Ratio … (%) Surface Tension” value is recorded as 97.0% and the “Retention Ratio … (%) Viscosity” value is on record as 96%.

With C.I. Acid Red 289 [Dye a], in series [1], the “Water Resistance [OD Residual Ratio (%)]” value amounted to 84%. Further, the “Light Fastness [OD Residual Ratio (%)]” value in series [2] stood at 73%. Further, the “Ozone Resistance (ΔE)” value in series [3] came to 4. In series [4], the “Retention Ratio … (%) Surface Tension” value is recorded as 99.7% and the “Retention Ratio … (%) Viscosity” value is given as 105%.

With C.I. Acid Yellow 17 [Dye c], in series [1], the “Water Resistance [OD Residual Ratio (%)]” value was determined as 42%. The “Light Fastness [OD Residual Ratio (%)]” value in series [2] is on record as 93%. Also, the “Ozone Resistance (ΔE)” value in series [3] was found to be 3. Also, in series [4], the “Retention Ratio … (%) Surface Tension” value is on record as 98.6% and the “Retention Ratio … (%) Viscosity” value came out at 105%.

Consider C.I. Acid Yellow 23 [Dye b], for which the “Water Resistance [OD Residual Ratio (%)]” value in series [1] is on record as 40%. Besides, the “Light Fastness [OD Residual Ratio (%)]” value in series [2] was 87%. Besides, the “Ozone Resistance (ΔE)” value in series [3] is on record as 5. Besides, in series [4], the “Retention Ratio … (%) Surface Tension” value is reported as 96.6% and the “Retention Ratio … (%) Viscosity” value is listed as 96%.

With C.I. Direct Yellow 86 [Dye d], the “Water Resistance [OD Residual Ratio (%)]” value in series [1] came out at 56%. The “Light Fastness [OD Residual Ratio (%)]” value in series [2] stood at 86%. Moreover, in series [3], the “Ozone Resistance (ΔE)” value was found to be 10. In series [4], the “Retention Ratio … (%) Surface Tension” value amounted to 93.9% and the “Retention Ratio … (%) Viscosity” value was 92%.

In the case of C.I. Direct Yellow 132 [Dye e], the “Water Resistance [OD Residual Ratio (%)]” value in series [1] turned out to be 35%. In series [2], the “Light Fastness [OD Residual Ratio (%)]” value was determined as 82%. In series [3], the “Ozone Resistance (ΔE)” value is 0. Moreover, in series [4], the “Retention Ratio … (%) Surface Tension” value amounted to 101.2% and the “Retention Ratio … (%) Viscosity” value was 105%.

C.I. Solvent Red 49 [Dye l]: in series [1], the “Water Resistance [OD Residual Ratio (%)]” value is given as 100%. Also, in series [5] (dyed plain paper immersed in 1 N aqueous hydrochloric acid for 10 minutes), the “Acid Resistance” value is “◯”. Besides, the “Alkali Resistance” value in series [5] (dyed plain paper immersed in 1 N aqueous sodium hydroxide for 10 minutes) is “◯”. In addition, the “Water Resistance” value in series [5] (dyed plain paper immersed in water for 10 minutes) is on record as “◯”. In addition, the “Light Fastness [OD Residual Ratio (%)]” value in series [2] amounted to 45%. Also, the “Solvent Solubility 2-Butanone” value in series [6] (20 parts by weight dye in 100 parts by weight 2-butanone) was “◯”. For the same compound, the “Solvent Solubility Ethanol” value in series [6] (20 parts by weight dye in 100 parts by weight ethanol) is given as “◯”. Moreover, in series [6] (20 parts by weight dye in 100 parts by weight tetrahydrofuran), the “Solvent Solubility Tetrahydrofuran” value is reported as “◯”. In addition, in series [6] (20 parts by weight dye in 100 parts by weight toluene), the “Solvent Solubility Toluene” value was “◯”. Also, the “Ozone Resistance (ΔE)” value in series [3] was determined as 8. Besides, in series [4], the “Retention Ratio … (%) Particle Size” value was found to be 93%, the “Retention Ratio … (%) Surface Tension” value was found to be 97.9% and the “Retention Ratio … (%) Viscosity” value was determined as 91%.

For the origin of these results see US6730780B2, “Water-based ink” (Kao Corporation, priority 2000, dated 2004).
